Source: PubChem BioAssay (NCI)
Where “and” joins values, the source holds several entries; their conditions need not be identical. Identical values can stand only once.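 Grown in 96-well plates, cells were treated for 48 hours with each compound at five concentrations. Insufficient inhibition: endpoint recorded as highest concentration tested. GI50: concentration for 50% inhibition of growth. TGI is the concentration that stops growth completely.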

Legend:
Assay in all cases: NCI anticancer screen, dose series, 48 h
[1] = system: SR leukemia
[2] = system: SK-OV-3 ovarian
[3] = system: COLO 205 colon
[4] = system: UO-31 renal
[5] = system: U251 CNS
[6] = system: A498 renal
[7] = system: MOLT-4 leukemia
[8] = system: M14 melanoma
[9] = system: OVCAR-4 ovarian
[10] = system: IGROV1 ovarian

Structure (SMILES)	GI50 [1]	TGI [1]	GI50 [2]	TGI [2]	GI50 [3]	TGI [3]	GI50 [4]	TGI [4]	GI50 [5]	TGI [5]	GI50 [6] [µM]	TGI [6]	GI50 [7]	TGI [7]	GI50 [8]	TGI [8]	GI50 [9]	TGI [9]	GI50 [10]	TGI [10]
CCCCCCCCCCCCNC(=O)[C@H]1CSC(c2ccsc2)N1 (stereo not given in full)	0.882 µM	2.07 µM	0.955 µM	1.66 µM	7.95 µM	15.9 µM	0.826 µM	1.51 µM	0.875 µM	1.61 µM	9.62	17.1 µM	0.895 µM	1.84 µM	0.855 µM	1.63 µM	0.911 µM	1.73 µM	0.96 µM	1.92 µM
Cc1cc(Nc2cc(N3CCN(C)CC3)nc(C#Cc3ccccc3)n2)n[nH]1	3.47 µM	20.4 µM	2.16 µM	13.2 µM	1.69 µM	4.62 µM	1.07 µM	7.28 µM	3.52 µM	16.9 µM	0.703	3.68 µM	3.46 µM	19.2 µM	1.4 µM	14.7 µM	1.7 µM	13.3 µM	1.13 µM	6.05 µM
Oc1cccc(-c2nc(N3CCOCC3)c3oc4ncccc4c3n2)c1	0.244 µM	7.42 µM	0.0912 µM and 0.0819 µM	0.606 µM and 0.393 µM	10.5 µM and 17.8 µM	41.7 µM and > 72 µM	0.0354 µM and 0.0315 µM	0.571 µM and 0.449 µM	0.346 µM and 0.384 µM	> 44.5 µM and 10.9 µM	1.96	9.35 µM and 3.98 µM	0.102 µM and 0.168 µM	> 100 µM	0.127 µM and 0.152 µM	–	0.354 µM and 0.228 µM	4.12 µM and 2.9 µM	0.327 µM and 0.425 µM	1.47 µM and 2.23 µM
COc1ccc(C2NC(=S)NC3=C2COc2ccc(F)cc23)cc1OC (stereo not given)	50.8 µM	> 100 µM	71.2 µM	> 100 µM	36.2 µM	> 100 µM	39.2 µM	> 100 µM	12.7 µM	29.5 µM	13.4	36.1 µM	54.6 µM	> 100 µM	33.9 µM	> 100 µM	23 µM	> 100 µM	29.8 µM	> 100 µM
O=C1c2c(O)ccc(O)c2C(=O)c2c(NCCNCCO)ccc(NCCNCCO)c21	< 0.005 µM	0.102 µM and 0.389 µM and 0.865 µM	–	0.228 µM and 0.563 µM and 0.431 µM	–	1.23 µM and 0.769 µM and 1.16 µM	–	0.835 µM and 0.668 µM and 2.55 µM	–	0.151 µM and 0.499 µM and 0.376 µM	0.0721	0.555 µM and 0.588 µM and 0.59 µM	< 0.01 µM and < 0.005 µM and 0.00476 µM	0.235 µM and 0.339 µM	–	1.77 µM and 0.809 µM and 2.11 µM	–	2.08 µM and 0.744 µM and 1.4 µM	–	1.41 µM and 3.13 µM and 2.21 µM
O=C(NOC(=O)c1ccc([N+](=O)[O-])cc1)c1ccc(Cl)cc1	–	> 100 µM	–	> 100 µM	–	> 100 µM	–	> 100 µM	–	> 100 µM	–	> 100 µM	–	> 100 µM	–	> 100 µM	–	> 100 µM	–	59.4 µM
C=C[C@@]1(C)CC(=O)[C@]2(O)[C@@]3(C)[C@@H](O)CCC(C)(C)[C@@H]3[C@H](O)[C@@H](OC(C)=O)[C@@]2(C)O1	–	> 100 µM	–	> 100 µM	–	> 100 µM	–	> 100 µM	–	> 100 µM	–	> 100 µM	–	> 100 µM	–	> 100 µM	–	> 100 µM	–	> 100 µM
Cc1cc(C)c2nccc(NCCCN(C)C)c2c1[N+](=O)[O-]	–	> 100 µM	–	> 100 µM	–	28.5 µM	–	42.8 µM	–	> 100 µM	–	> 100 µM	–	> 100 µM	–	33.7 µM	–	30.2 µM	–	92.3 µM
COc1ccc(-c2nn3ncccc3c2-c2ccnc(Nc3cccc(C(F)(F)F)c3)n2)cc1	13.5 µM	> 25 µM	7.76 µM	> 25 µM	17 µM	> 25 µM	4.83 µM	> 22.9 µM	11.6 µM	> 25 µM	4.41	> 20.3 µM	8.8 µM	> 25 µM	9.01 µM	> 25 µM	8.54 µM	> 25 µM	4.39 µM	> 20.2 µM
COc1ccc(-c2conc2-c2ccccc2)cc1	0.155 µM	> 100 µM	0.501 µM	> 100 µM	0.248 µM	1.42 µM	0.64 µM	40.9 µM	0.468 µM	> 100 µM	0.107	0.58 µM	0.706 µM	> 100 µM	0.268 µM	> 100 µM	2.35 µM	> 100 µM	0.498 µM	> 100 µM
COC(=O)C1=C(C(=O)OC)C(C(=O)OC)C(C(=O)OC)C(C(=O)OC)(C(=O)OC)C(C(=O)OC)=C1C(=O)OC (stereo not given)	–	3.34 µM	–	55.6 µM	–	16.8 µM	–	30.7 µM	–	31 µM	–	29.3 µM	–	6.71 µM	–	29.8 µM	–	> 52 µM	–	36.8 µM
CCOC(=O)C(=Cc1c(-c2ccccc2)[nH]c2ccccc12)C(=O)OCC	2.09 µM	9.43 µM	13.6 µM	49.2 µM	4.81 µM	16.3 µM	3.92 µM	17.1 µM	4.91 µM	35.6 µM	15.8	55.6 µM	3.81 µM	18.8 µM	4.16 µM	15.6 µM	5.49 µM	> 76.5 µM	5.56 µM	23.7 µM
COc1ccc2c(c1)c(-c1cc(-c3cn(C)c4ccc(OC)cc34)[nH]n1)cn2C	> 100 µM	> 100 µM	> 100 µM	> 100 µM	> 100 µM	> 100 µM	> 100 µM	> 100 µM	> 100 µM	> 100 µM	> 100	> 100 µM	> 100 µM	> 100 µM	> 100 µM	> 100 µM	> 100 µM	> 100 µM	> 100 µM	> 100 µM
O=c1ncccn1C1OC(CO)C(O)C1F (stereo not given)	–	> 100 µM	–	> 100 µM	–	> 100 µM	> 100 µM	> 100 µM	–	> 100 µM	–	> 100 µM	–	> 100 µM	–	> 100 µM	–	> 100 µM	–	> 100 µM
CCCC(=O)Nc1cn(COC)c(C(=O)N2C[C@H]3C[C@@]34C2=CC(=O)c2[nH]cc(C)c24)n1	–	> 100 µM	26.7 µM	50 µM and > 100 µM	4.41 µM	15.9 µM and 32.4 µM	3.47 µM	28.1 µM and 73.1 µM	–	50 µM and > 100 µM	–	17.9 µM	1.6 µM	–	7.14 µM	50 µM and > 100 µM	–	30 µM and 36.5 µM	6.68 µM	50 µM and > 100 µM
O=c1c2ccccc2c(=O)c2c1sc1c(=O)c3ccc(O)cc3c(=O)c12	1.08 µM	> 100 µM	1.38 µM	2.91 µM	–	–	0.644 µM	2.82 µM	1.01 µM	2.39 µM	0.574	1.72 µM	2.17 µM	8.07 µM	0.0976 µM	0.219 µM	0.88 µM	2.1 µM	2.1 µM	6.84 µM
O=C1Cc2ccccc2CCc2ccccc21	–	> 100 µM	–	> 100 µM	–	> 100 µM	–	> 100 µM	–	> 100 µM	–	> 100 µM	–	> 100 µM	–	> 100 µM	–	> 100 µM	–	> 100 µM
N#Cc1c(-c2ccc(Cl)cc2)csc1NC(=O)Nc1cccc(C(F)(F)F)c1	2.41 µM	8.41 µM	2.54 µM	6.89 µM	1.91 µM	3.88 µM	1.8 µM	5.48 µM	2.09 µM	5.46 µM	1.79	4.3 µM	1.91 µM	7.77 µM	2.88 µM	10.1 µM	3.2 µM	14.4 µM	3.51 µM	14.2 µM
COc1ccc(-c2cn(-c3cc(OC)c(OC)c(OC)c3)c(=O)n2-c2ccccc2)cc1	50.1 µM	> 100 µM	> 100 µM	> 100 µM	> 100 µM	> 100 µM	> 100 µM	> 100 µM	> 100 µM	> 100 µM	> 100	> 100 µM	> 100 µM	> 100 µM	> 100 µM	> 100 µM	51.7 µM	> 100 µM	27.6 µM	> 100 µM
COc1ccccc1-c1nccc(COc2ccccc2C[C@@H](Oc2ncnc3sc(-c4ccc(F)cc4)c(-c4ccc(OCCN5CCN(C)CC5)c(Cl)c4C)c23)C(=O)O)n1	0.034 µM	0.714 µM	4.04 µM	16.5 µM	1.86 µM	4.33 µM	6.12 µM	17.5 µM	1.88 µM	4.15 µM	–	0.522 µM	0.0436 µM	1.54 µM	1.73 µM	4.05 µM	3.55 µM	14.6 µM	2.27 µM	6.08 µM
COc1cc2c(c(OC)c1OC)-c1ccc(SC)c(=O)cc1[C@@H](NC(=O)c1ccc(F)cc1)CC2	0.0167 µM and < 0.01 µM	> 100 µM	< 0.01 µM	0.072 µM and < 0.01 µM	< 0.01 µM	0.0388 µM and < 0.01 µM	–	46.6 µM	< 0.01 µM	0.0113 µM	< 0.01	0.0757 µM and < 0.01 µM	< 0.01 µM	> 100 µM	< 0.01 µM	2.69 µM	–	91.1 µM	< 0.01 µM	> 100 µM
CCOc1ccccc1NC(=O)CCC(=O)NN	–	70.1 µM	–	> 100 µM	–	> 100 µM	–	> 100 µM	–	> 100 µM	–	> 100 µM	–	> 100 µM	–	> 100 µM	–	> 100 µM	–	> 100 µM
BrC(Br)([P+](c1ccccc1)(c1ccccc1)c1ccccc1)[P+](c1ccccc1)(c1ccccc1)c1ccccc1	–	56 µM	–	> 100 µM	–	29.9 µM	–	> 100 µM	–	47.3 µM	–	48 µM	–	61.8 µM	–	48.9 µM	–	43.3 µM	–	43.2 µM
Nc1ccc2c(SCC(=O)Nc3ccccc3-c3ccccc3NC(=O)CSc3c4ccccc4nc4cc(N)ccc34)c3ccccc3nc2c1	–	> 100 µM	–	> 100 µM	–	43 µM	–	58.4 µM	–	66.5 µM	–	65.9 µM	–	> 44.1 µM	–	59 µM	–	78.9 µM	–	83 µM
CCn1c(-c2nonc2N)nc2c(C#CC(C)(C)O)ncc(OC[C@@H]3CCCN3)c21	8.19 µM	> 20.2 µM	0.968 µM	> 19 µM	2.94 µM	7.62 µM	13.4 µM	> 25 µM	3.03 µM	> 22 µM	0.136	1.97 µM	3.01 µM	> 25 µM	6.95 µM	> 25 µM	8.88 µM	> 25 µM	0.676 µM	> 25 µM
CCCCCCCCCCCCCCCCCCNC(=O)[C@H]1CSC(c2ccc(F)c(OC)c2)N1 (stereo not given in full)	0.637 µM	1.91 µM	1.92 µM	11.2 µM	–	–	5.57 µM	> 50 µM	0.866 µM	1.6 µM	> 50	> 50 µM	0.717 µM	5.17 µM	0.713 µM	1.47 µM	1.38 µM	3.62 µM	1.43 µM	5.05 µM
NC1(C(=O)O)CSSC1	17.8 µM	> 100 µM	20.3 µM	82.5 µM	11.8 µM	27.1 µM	3.68 µM	34.4 µM	3.58 µM	22.6 µM	2.53	7.27 µM	5.61 µM	> 100 µM	3.21 µM	11.8 µM	5.44 µM	46.5 µM	3.91 µM	29.9 µM
O=C(O)C(O)c1ccc(F)cc1 (stereo not given)	–	> 100 µM	–	> 100 µM	–	–	–	> 100 µM	–	> 100 µM	–	> 100 µM	–	> 100 µM	–	> 100 µM	–	> 100 µM	–	> 100 µM
CC(=O)Nc1ccc2c(c1)CN1C(=O)c3ccccc3C1=N2	> 100 µM	> 100 µM	> 100 µM	> 100 µM	> 100 µM	> 100 µM	> 100 µM	> 100 µM	> 100 µM	> 100 µM	> 100	> 100 µM	> 100 µM	> 100 µM	> 100 µM	> 100 µM	> 100 µM	> 100 µM	> 100 µM	> 100 µM
